# Test system: NCI-H292 cells
# Assay: AB-PAS staining of mucus glycoprotein in NCI-H292 cells
# Assay type: cell-based, human
# Settings: FIG. 1 and 2
# Procedure: (§1) NCI-H292 cells (human pulmonary mucoepidermoid tumor cell strain, purchased from ATCC) were suspended in 10% FCS (Fetal Calf Serum)-containing RPMI-1640 (produced by Gibco Corp.), sowed on a Lab-Tek 8 well chamber slide (produced by Nunc Corp.) in a density of 6.0×10^4 cells/cm^2, cultured for 72 hours, subjected to the replacement of the culture solution by RPMI-1640 containing 0.1% of BSA, and further cultured for 24 hours.
# On the day of the treatment, the culture solution of each well was replaced by RPMI-1640 (containing 0.1% BSA) containing EGF (5 ng/mL, produced by Becton Dickinson Corp.), HB-EGF (5 ng/mL, produced by R & D Corp.), TGF-α (5 ng/mL, produced by Peprotech Corp.), or PBS to start the treatment. Then, the cells were incubated at 37° C. for 24 hours.
# After the prescribed 24 hours treatment, the culture supernatant was removed. The residue was once washed with PBS, mixed with 4% paraformaldehyde/PBS, and then allowed to stand at room temperature for one hour to immobilize the cells. The immobilized cells were twice washed with Milli Q water and then stained with AB-PAS. The staining was carried out according to a book (“All of new dyeing methods” p136-150 (Iyaku Shuppansha)). After staining, the cells were sequentially immersed in 70, 80, and 100% ethanol for five minutes, respectively, to remove water, sealed in an Aquatex (produced by Merck Corp.), and then subjected to the observation of the staining image with an optical microscope. From the results, it was clarified that all of HAST, TGF-α, EGF, and HB-EGF promoted the production of the mucus glycoprotein.
# as §1, with “(purchased” for “(human pulmonary mucoepidermoid tumor cell strain, purchased”, “FCS-containing” for “FCS (Fetal Calf Serum)-containing”, “hours. […]” for “hours.”
substance,measurement,value
HAST: human airway-specific trypsin-like enzyme; propeptide moiety bound to trypsin-like protein moiety via a disulfide bond,production of the mucus glycoprotein,promoted
